Counter-ions that a name gives are not always drawn.
Assays:
[1] = system: RAW264.7; test: Cytotoxicity test (MTT assay) of solvent components PEG, DMSO and HCl; type: cell-based; details: RAW264.7, MTT assay, FIG. 1
[2] = background statement; cited from earlier work

| Molecule | concentration at which no toxicity was observed [1] | water solubility [2] |
| --- | --- | --- |
| Cl [HCl, hydrochloric acid] | ≤ 10 mN |  |
| C[S+](C)[O-] [DMSO, dimethylsulfoxide] | ≤ 2 vol % |  |
| polyethylene glycol [PEG] | ≤ 3 vol % |  |
| 3-[(3, 5-dimethyl-1H-pyrazole-4-yl)methyl]-3-devinylpyropheophorbide-a methyl ester [MPP100] |  | extremely low water solubility |
